Molecular target: TcUGM (UDP-galactopyranose mutase from Trypanosoma cruzi) (Trypanosoma cruzi, UniProt Q4E1W2)
Test: X-ray crystal structure, […] Å
Format: binding
Details: UDP complex, pH 7.5

| SMILES | X-ray crystal structure, 2.25 Å (crystals reduced by soaking in 60 mM dithionite) | X-ray crystal structure, 2.25 Å (oxidized enzyme) |
| --- | --- | --- |
| Cc1cc2c(cc1C)N(C[C@H](O)[C@H](O)[C@H](O)COP(=O)(O)OP(=O)(O)OC[C@H]1O[C@@H](n3cnc4c(N)ncnc43)[C@H](O)[C@@H]1O)c1[nH]c(=O)[nH]c(=O)c1N2 [FADH^−] | In the reduced enzyme, the FAD exhibits a butterfly-like conformation | – |
| Cc1cc2nc3c(=O)[nH]c(=O)nc-3n(C[C@H](O)[C@H](O)[C@H](O)COP(=O)(O)OP(=O)(O)OC[C@H]3O[C@@H](n4cnc5c(N)ncnc54)[C@H](O)[C@@H]3O)c2cc1C [FAD] | – | In the oxidized state, the electron density maps are consistent with a planar isoalloxazine |

Source: paper PMC3426654 (Biochemistry, 2012)
